This assay concerns CD2F1 mice, L1210 leukemia ip, survival T/C. The experiment in a line: NCI In Vivo Anticancer Drug Screen. Data for tumor model L1210 Leukemia (intraperitoneal) in CD2F1 (CDF1) mice. The following applies: endpoint: mean survival time; dose: 300.0 mg/kg/injection; schedule: Q01DX001 (ip); vehicle: saline; higher = longer survival. Summed up:
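Tumor-bearing mice (transplanted tumor) were split into treated and vehicle control groups, and the measured endpoint of each treated group was divided by that of its vehicle controls.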

The structures appear in SMILES notation. Toxic doses and inconclusive results are not listed.

Consider `Nc1nc(SSc2nc(N)nc3c2ncn3C2OC(CO)CC2O)c2ncn(C3OC(CO)CC3O)c2n1` (stereo unspecified), for which the T/C is 118 % of control.

Source of the values: PubChem BioAssay AID256 (DTP/NCI, 2004).
